Data from patent US20200338028A1, “BENZENESULFONAMIDE DERIVATIVES AND METHOD FOR MODULATING LIPID RAFT” (Gongwin Biopharm Co., Ltd., priority 2017, published 2020).
Where two headings read alike, the source gives them in different places.

Key:
PC-3 cells [1] = assay: SRB assay, anti-proliferative effect; format: cell-based; conditions: Homo sapiens
Procedure: Two castration-resistant prostate cancer (CRPC) cell lines of PC-3 and DU-145 were cultured in RPMI 1640 medium with 5% FBS (v/v), penicillin (100 units/ml) and streptomycin (100 μg/ml). Cultures were maintained in a 37° C. incubator with 5% CO2, and adherent cultures were passaged using 0.05% trypsin-EDTA when they reached about 80% confluence. Prostate cells were from human tissue samples which were obtained following informed consent of the donors and after full review by the Ethics Review Committee at National Taiwan University Hospital. The prostate specimens were from males by transurethral resection of the prostate. All patients with prostatism histories were diagnosed to have benign prostate hyperplasia by rectal digital examination, transrectal sonography of prostate and urodynamic studies. Isolation of human prostatic cells from prostatic tissue explants was described in the previous study. The prostate cells were with less amount lipid rafts compared to prostate cancer cells.
SRB assay, colonogenic assay, and carboxyfluorescein succinimidyl ester (CFSE) staining were used for anti-proliferative determination. SRB assay is an accurate and reproducible assay based upon quantitative SRB staining of cellular proteins, and the process for SRB assay was performed as follows. Each individual PC-3 and DU-145 cells were seeded in 96-well plates in medium with 10% FBS. After 24 h, PC-3 and DU-145 cells were fixed with 10% TCA to represent cell population at the time of p-TSA addition. […] The absorbance of SRB was measured at a wavelength of 515 nm at the time of p-TSA addition (hereinafter referred to as time zero, TZ), and after additional incubation of DMSO (hereinafter referred to as control growth, CTL) or p-TSA (hereinafter referred to as Tx). The percentage of cell growth inhibition was calculated by the formula of [1−(Tx−TZ)/(CTL−TZ)]×100%. […]
To further substantiate the role of Akt, the Myr-Akt overexpressed PC-3 cells were prepared with the method shown as follows. […] Furthermore, the functional rescue of Myr-Akt was determined. […]

PC-3 cells [2] = assay: CFSE staining, flow cytometric proliferation index; format: cell-based, human; conditions: PC-3, 48 h
Procedure: (§1) The anti-proliferative effect was further examined by CFSE staining. CFSE is a fluorescent cell staining dye for cell-tracking, and it was conjugated to intracellular proteins and was evenly inherited by divided cells after cell proliferation. Consequently, the fluorescence-staining was distributed to later generations of cells with the passage of time. The process for CFSE staining was performed as follows. CFSE was dissolved in DMSO to constitute a storage solution of 10 mM and was kept at −20° C. until use. The PC-3 and DU-145 cells were adjusted to a density of 10^6 cells/ml and were treated with CFSE at a final concentration of 10 μM in tubes. After incubation at 37° C. for 10 min, labeling was blocked by the addition of RPMI medium with 10% FBS. The tubes were placed on ice for 5 min and then washed. After centrifugation of the tubes, the cells were seeded in RPMI medium with 10% FCS in the absence or presence of p-TSA for 48 h at 37° C. under 5% CO2/95% air condition. The fluorescence intensity was determined by flow cytometric analysis. The cell proliferation was assessed by monitoring the decrease in label intensity in daughter cells. The proliferation index and the cell populations of parent or different generations were calculated by using Modfit LT Version 3.2 and WinList Version 5.0 software.

DU-145 cells [3] = assay: CFSE staining, flow cytometric proliferation index; format: cell-based, human; conditions: DU-145, 48 h
Procedure: as §1

DU-145 cells [4] = assay: colony formation (clonogenic) assay; format: cell-based, human; conditions: DU-145, 10 days, FIG. 1B
Procedure: To assay the anchorage-dependent clonogenic effect, each individual PC-3 and DU-145 cells (150 cells/well) were seeded in a 6-well plate. After a 10-day treatment with p-TSA, the cell colonies were rinsed with phosphate-buffered saline (PBS), stained with 0.4% (w/v) crystal violet dissolved in 20% methanol, and lysed by 50 mM sodium citrate dissolved in 50% ethanol. The absorbance was read at a wavelength of 595 nm.

## Cc1ccc(S(N)(=O)=O)cc1 [p-TSA, para-toluenesulfonamide]
PC-3 cells [1]; PC-3, 48 h, PC-3 overexpressing constitutively active Myr-Akt, 48 hours, FIG. 4E, read-out: IC50, growth inhibition, SRB assay
  IC50: 2180 ± 100 µM
PC-3 cells [1]; PC-3, 48 h, PC-3 without Myr-Akt overexpression, 48 hours, FIG. 4E, read-out: IC50, growth inhibition, SRB assay
  IC50: 1970 ± 10 µM
PC-3 cells [1]; PC-3, PC-3, SRB assay, FIG. 1A, read-out: IC50, inhibition of cell growth
  IC50: ~3000 µM
PC-3 cells [2]
  proliferation index based on CFSE staining: concentration-dependent inhibition
DU-145 cells [3]
  proliferation index based on CFSE staining: concentration-dependent inhibition
DU-145 cells [4]
  anti-proliferative effect, clonogenic assay: long-term anti-proliferative effect
